Measured values reported in ChEMBL document CHEMBL1275333, “Identification of non-peptide malignant brain tumor (MBT) repeat antagonists by virtual screening of commercially available compounds” (J Med Chem, 2010).

Experiments:
[1] = biological target: T1, Lethal(3)malignant brain tumor-like protein 4 (Homo sapiens, UniProt Q8NA19); experiment: Inhibition of L3MBTL4 by alpha-screening
T1 sequence (Q8NA19 whole entry): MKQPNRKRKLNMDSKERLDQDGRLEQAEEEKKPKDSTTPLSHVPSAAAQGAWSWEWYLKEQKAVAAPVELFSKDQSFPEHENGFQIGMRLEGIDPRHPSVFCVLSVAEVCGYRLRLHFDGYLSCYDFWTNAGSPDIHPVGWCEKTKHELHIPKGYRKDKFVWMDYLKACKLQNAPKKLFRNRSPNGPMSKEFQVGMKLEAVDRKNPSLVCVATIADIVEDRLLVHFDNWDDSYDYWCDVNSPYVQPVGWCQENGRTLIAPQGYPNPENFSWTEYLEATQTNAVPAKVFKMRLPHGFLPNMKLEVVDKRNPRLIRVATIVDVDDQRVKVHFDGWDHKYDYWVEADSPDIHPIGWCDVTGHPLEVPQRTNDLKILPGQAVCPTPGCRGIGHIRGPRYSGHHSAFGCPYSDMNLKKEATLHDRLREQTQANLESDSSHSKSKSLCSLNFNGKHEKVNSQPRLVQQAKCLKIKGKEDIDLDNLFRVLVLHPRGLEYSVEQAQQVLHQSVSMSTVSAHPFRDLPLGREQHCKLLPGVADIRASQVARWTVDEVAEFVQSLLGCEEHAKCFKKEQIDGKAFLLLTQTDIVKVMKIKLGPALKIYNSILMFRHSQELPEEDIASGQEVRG

[2] = biological target: T2, Lethal(3)malignant brain tumor-like protein 1 (Homo sapiens, UniProt Q9Y468); experiment: Inhibition of L3MBTL1 by alpha-screening
T2 sequence (Q9Y468 whole entry): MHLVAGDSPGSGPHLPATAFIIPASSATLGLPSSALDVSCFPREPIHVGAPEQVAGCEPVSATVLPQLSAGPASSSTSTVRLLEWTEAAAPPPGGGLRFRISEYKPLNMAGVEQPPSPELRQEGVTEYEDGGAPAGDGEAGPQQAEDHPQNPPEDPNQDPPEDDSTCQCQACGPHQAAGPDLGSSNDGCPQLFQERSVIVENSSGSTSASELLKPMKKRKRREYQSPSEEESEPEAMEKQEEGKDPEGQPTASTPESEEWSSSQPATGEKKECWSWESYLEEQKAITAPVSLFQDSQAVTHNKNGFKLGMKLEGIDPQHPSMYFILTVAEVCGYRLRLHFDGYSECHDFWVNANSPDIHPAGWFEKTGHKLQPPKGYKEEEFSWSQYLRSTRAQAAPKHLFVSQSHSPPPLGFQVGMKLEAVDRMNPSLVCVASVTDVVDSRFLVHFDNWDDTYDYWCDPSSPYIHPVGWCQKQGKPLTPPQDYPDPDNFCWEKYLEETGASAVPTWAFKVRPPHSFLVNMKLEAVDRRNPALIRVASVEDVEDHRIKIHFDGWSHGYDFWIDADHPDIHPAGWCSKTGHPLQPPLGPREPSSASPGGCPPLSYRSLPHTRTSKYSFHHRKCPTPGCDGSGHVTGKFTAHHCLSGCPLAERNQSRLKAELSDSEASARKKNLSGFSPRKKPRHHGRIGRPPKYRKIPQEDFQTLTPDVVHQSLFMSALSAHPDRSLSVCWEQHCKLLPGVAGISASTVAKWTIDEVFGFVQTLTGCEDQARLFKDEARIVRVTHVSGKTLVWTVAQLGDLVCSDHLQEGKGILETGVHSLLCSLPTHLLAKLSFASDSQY

[3] = biological target: MBT domain-containing protein 1 (Homo sapiens, UniProt Q05BQ5); experiment: Inhibition of MBTD1 by alpha-screening
Chain of MBT domain-containing protein 1 (Q05BQ5 whole entry, the tested form may be a part): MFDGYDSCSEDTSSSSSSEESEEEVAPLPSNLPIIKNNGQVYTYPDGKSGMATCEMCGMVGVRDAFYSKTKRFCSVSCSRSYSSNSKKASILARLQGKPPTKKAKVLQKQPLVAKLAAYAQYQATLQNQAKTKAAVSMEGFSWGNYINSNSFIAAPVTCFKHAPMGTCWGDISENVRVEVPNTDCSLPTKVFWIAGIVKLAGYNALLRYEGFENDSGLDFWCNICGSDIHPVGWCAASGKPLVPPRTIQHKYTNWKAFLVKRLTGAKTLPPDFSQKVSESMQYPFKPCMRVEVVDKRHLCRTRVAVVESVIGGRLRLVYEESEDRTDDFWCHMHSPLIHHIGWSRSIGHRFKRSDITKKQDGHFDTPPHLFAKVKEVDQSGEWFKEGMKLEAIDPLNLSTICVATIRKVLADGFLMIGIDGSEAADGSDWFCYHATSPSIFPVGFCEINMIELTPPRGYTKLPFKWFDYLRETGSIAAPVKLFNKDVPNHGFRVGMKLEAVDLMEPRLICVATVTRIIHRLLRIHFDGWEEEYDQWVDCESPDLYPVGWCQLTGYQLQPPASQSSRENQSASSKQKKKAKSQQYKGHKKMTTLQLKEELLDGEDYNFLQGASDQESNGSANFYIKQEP

[4] = AlphaScreen counterscreen signal interference at 100 uM
[5] = biological target: T3, Lethal(3)malignant brain tumor-like protein 3 (Homo sapiens, UniProt Q96JM7); experiment: Inhibition of L3MBTL3 by alpha-screening
T3 sequence (Q96JM7 whole entry): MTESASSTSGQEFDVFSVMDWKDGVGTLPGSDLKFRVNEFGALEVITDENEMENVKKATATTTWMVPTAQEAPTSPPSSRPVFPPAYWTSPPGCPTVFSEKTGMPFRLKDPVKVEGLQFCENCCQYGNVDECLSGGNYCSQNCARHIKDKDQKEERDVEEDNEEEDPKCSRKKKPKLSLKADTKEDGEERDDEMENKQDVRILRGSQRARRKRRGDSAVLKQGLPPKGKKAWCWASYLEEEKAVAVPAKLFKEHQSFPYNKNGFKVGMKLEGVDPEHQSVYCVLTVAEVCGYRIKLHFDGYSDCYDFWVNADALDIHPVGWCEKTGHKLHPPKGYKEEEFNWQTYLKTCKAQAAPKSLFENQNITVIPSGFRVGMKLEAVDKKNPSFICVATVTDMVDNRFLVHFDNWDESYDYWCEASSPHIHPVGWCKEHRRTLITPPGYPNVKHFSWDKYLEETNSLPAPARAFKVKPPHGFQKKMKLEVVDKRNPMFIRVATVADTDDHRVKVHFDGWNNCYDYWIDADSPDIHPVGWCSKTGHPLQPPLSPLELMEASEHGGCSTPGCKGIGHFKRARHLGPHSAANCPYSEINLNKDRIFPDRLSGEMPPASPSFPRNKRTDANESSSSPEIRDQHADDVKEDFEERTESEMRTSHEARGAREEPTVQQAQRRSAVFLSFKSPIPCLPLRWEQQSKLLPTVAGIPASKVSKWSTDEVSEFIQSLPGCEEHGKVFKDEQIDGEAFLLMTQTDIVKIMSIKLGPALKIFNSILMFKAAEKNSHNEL

Row | SMILES | IC50 [1] | IC50 [2] | IC50 [3] | Activity [4] | IC50 [5]
1 | CCN(CC)CCCNS(=O)(=O)c1ccc(F)c(Cl)c1 | > 100 µM | > 100 µM | > 100 µM | 8% | 
2 | CCN(CC)CC#CCOC(=O)C(O)(c1ccccc1)C1CCCCC1 (stereo unspecified) [OXYBUTYNIN] | > 100 µM | > 100 µM | > 100 µM |  | 
3 | CN(C)CCC(c1ccc(Cl)cc1)c1ccccn1 (stereo unspecified) [CHLORPHENIRAMINE] |  |  | 34 µM |  | 
4 | CNCCC1OC(c2ccc(Cl)cc2)Cc2ccccc21 (stereo unspecified) | 78 µM |  | > 100 µM |  | 
5 | CNCCCCOc1ccc(Cc2ccccc2)cc1 | > 100 µM | 91 µM | > 100 µM | 8% | > 100 µM
6 | Cc1ncc(CCCCN(C)C)c2c1[nH]c1ccccc12 | > 100 µM | 21 µM | 73 µM | 15% | 5.7 µM
7 | CNCCCC1Sc2ccccc2Oc2ccccc21 (stereo unspecified) | > 100 µM | 14 µM | > 100 µM |  | 
8 | CNCCCC(C#N)(c1ccccc1C)C(C)C (stereo unspecified) | > 100 µM | 18 µM | > 100 µM | 3% | > 100 µM
9 | CN(C)CCCNC(=O)C1(O)c2cc(Br)ccc2NC(=O)N1c1ccc(Cl)cc1 (stereo unspecified) | > 100 µM | 52 µM | 37 µM | 3% | 
10 | CC(CCN(C)C)OC(=O)c1ccc(C(C)c2ccccc2)o1 (stereo unspecified) | > 100 µM | 84 µM | 66 µM | 22% | 75 µM
11 | CCN(CC)CCCNS(=O)(=O)c1cc(OC)ccc1OC | > 100 µM | > 100 µM | > 100 µM | -6% | 48 µM
12 | CN(C)CCC(=O)c1cc2c(cc1Br)OCCCO2 | 12 µM | > 100 µM | > 100 µM | 35% | > 100 µM
13 | CNCCCCc1ccccc1 | > 100 µM | 68 µM | > 100 µM | 5% | > 100 µM
14 | CNCCCCOc1ccc(C)cc1OC | 92 µM | > 100 µM | > 100 µM | 30% | 84 µM
15 | Cc1ccc(S(=O)(=O)NCCCN2CCCC2)cc1 | > 100 µM | 17 µM | 59 µM |  | 
16 | CCc1cc(OCCCCNC)ccc1Cl | > 100 µM | 96 µM | > 100 µM |  | 
17 | CNCC1CCN(CCc2ccc(Cl)cc2)CC1 | > 100 µM | 69 µM | > 100 µM |  | 
